Among the data in patent publication US20260308149A1, “NOVEL CARBOXAMIDE DERIVATIVES” (ANGELINI PHARMA S.P.A., priority 2023, published 2026) are EC50 values, retold here.

The EC50 is the concentration that produces a half-maximal response.

T1 sequence (O43526 whole entry): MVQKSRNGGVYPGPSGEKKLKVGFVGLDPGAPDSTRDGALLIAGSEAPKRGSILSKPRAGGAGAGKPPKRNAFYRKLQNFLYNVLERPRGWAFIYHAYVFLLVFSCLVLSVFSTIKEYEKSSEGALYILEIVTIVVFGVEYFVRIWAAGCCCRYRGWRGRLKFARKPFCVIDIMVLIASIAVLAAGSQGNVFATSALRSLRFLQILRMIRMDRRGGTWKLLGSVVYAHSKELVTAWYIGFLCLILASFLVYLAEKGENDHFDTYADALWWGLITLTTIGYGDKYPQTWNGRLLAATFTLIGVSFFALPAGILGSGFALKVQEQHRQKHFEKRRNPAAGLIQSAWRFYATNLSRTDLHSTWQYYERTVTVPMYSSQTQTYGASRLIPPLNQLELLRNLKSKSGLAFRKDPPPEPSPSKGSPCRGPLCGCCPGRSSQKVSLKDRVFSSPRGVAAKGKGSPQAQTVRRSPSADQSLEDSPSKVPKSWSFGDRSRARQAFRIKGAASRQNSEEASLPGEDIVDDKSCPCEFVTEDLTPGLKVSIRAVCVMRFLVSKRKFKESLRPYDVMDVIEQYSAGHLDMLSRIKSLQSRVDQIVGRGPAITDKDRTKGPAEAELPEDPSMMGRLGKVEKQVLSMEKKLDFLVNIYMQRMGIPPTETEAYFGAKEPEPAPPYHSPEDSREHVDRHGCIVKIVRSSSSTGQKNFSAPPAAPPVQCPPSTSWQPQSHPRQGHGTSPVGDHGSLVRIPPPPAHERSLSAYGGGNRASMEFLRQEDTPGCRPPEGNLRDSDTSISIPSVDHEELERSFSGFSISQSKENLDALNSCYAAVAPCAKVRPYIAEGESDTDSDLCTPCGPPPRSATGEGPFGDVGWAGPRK

This test has as its target T1, human Kv7.2 (Homo sapiens, UniProt O43526).
T1 construct: expressed in transfected cells
The test can be described thus: activation (potentiation) of Kv7.2 current, SyncroPatch 384 electrophysiology in CHO cells stably expressing human Kv7.2. The settings on record: human Kv7.2 in CHO cells; in presence of 5.6 μM zinc pyrithione; % activation relative to 30 μM ML-213. The format is cell-based. The procedure, abridged:
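CHO cells stably expressing human Kv7.2 were recorded by automated patch clamp, holding at −60 mV with steps to −30, 40 and −90 mV; current was read at the −90 mV step. Compounds were added after 5.6 μM zinc pyrithione pre-activation. % activation was normalised between 30 μM ML-213 (max) and TEA+XE-991 (leak), with EC50 from a logistic fit.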
In general terms: In patch-clamp work, channel activity is measured electrically.
Turning to `O=C(NCC1(c2ccnc(OC(F)F)c2)CCO1)[C@H]1C[C@@H]1c1ccccc1` (stereo partly drawn) [Example 67, (1S,2S)-N-[[2-[2-(difluoromethoxy)-4-pyridyl]oxetan-2-yl]methyl]-2-phenyl-cyclopropanecarboxamide], the EC50 was 0.41 µM.

Consider `O=C(NCC1CCCC1)NCC1(c2cccc(Cl)c2)CCC(=O)O1` (stereo not drawn) [Example 75, 1-[[2-(3-chlorophenyl)-5-oxo-tetrahydrofuran-2-yl]methyl]-3-(cyclopentylmethyl)urea], for which the EC50 is 0.29 µM. With `O=C1CCC(CNC(=O)[C@H]2C[C@@H]2c2ccccc2)(c2cccc(Cl)c2)O1` (stereo partly drawn) [Example 66, (1S,2S)-N-[[2-(3-chlorophenyl)-5-oxo-tetrahydrofuran-2-yl]methyl]-2-phenyl-cyclopropanecarboxamide], the EC50 worked out at 0.08 µM.

For the compound `CC(C)OC(CNC(=O)NC1CCCC1)c1cccc(Br)c1` (stereo not drawn) [Example 24, 1-[2-(3-bromophenyl)-2-isopropoxy-ethyl]-3-cyclopentyl-urea], the EC50 stood at 2.92 µM. For `CC(C#N)(CNC(=O)[C@H]1C[C@@H]1c1ccccc1)c1cccc(Cl)c1` (mixture of isomers) [Example 37, rac-(1S,2S)-N-[2-(3-chlorophenyl)-2-cyano-propyl]-2-phenyl-cyclopropanecarboxamide] the value was 1.32 µM; for `O=C(NCC(OC1CCC1)c1cccc(Cl)c1)NC1C[C@H]2CC[C@@H]1C2` (mixture of isomers) [Example 46, 1-[2-(3-chlorophenyl)-2-(cyclobutoxy)ethyl]-3-[rac-(1R,4S)-norbornan-2-yl]urea], 3.35 µM.

As for `N#Cc1cccc([C@]2(CNC(=O)C(F)C3CC4CCC3C4)CCO2)c1` (stereo partly drawn) [Example 131, N-[[(2S)-2-(3-cyanophenyl)oxetan-2-yl]methyl]-2-fluoro-2-norbornan-2-yl-acetamide], the EC50 came out at 5.95 µM.

For `CCCCNC(=O)NCC(C)(OC)c1cccc(Cl)c1` (stereo not drawn) [Example 8, 1-butyl-3-[2-(3-chlorophenyl)-2-methoxy-propyl]urea], the EC50 turned out to be 3.65 µM.

Regarding `O=C(NCC1(c2ccnc(OC(F)F)c2)CCO1)[C@H]1CC12CCCCC2` (stereo in doubt) [Example 122, N-[[2-[2-(difluoromethoxy)-4-pyridyl]oxetan-2-yl]methyl]spiro[2.5]octane-2-carboxamide], the EC50 came to 0.39 µM. For `COC(C)(CNC(=O)CC1CCCCC1)c1cccc(Cl)c1` (stereo not drawn) [Example 19, N-[2-(3-chlorophenyl)-2-methoxy-propyl]-2-cyclohexyl-acetamide], the EC50 is 0.62 µM.

`N#Cc1cccc([C@@]2(CNC(=O)[C@H]3C[C@@H]3c3ccccc3)CCO2)c1` [Example 55, (1S,2S)-N-[[(2R)-2-(3-cyanophenyl)oxetan-2-yl]methyl]-2-phenyl-cyclopropanecarboxamide]: the concentration giving a half-maximal response (EC50) was 0.79 µM.

For `N#Cc1cccc([C@@]2(CNC(=O)CC3CC4CCC3C4)CCO2)c1` (stereo partly drawn) [Example 97, N-[[(2R)-2-(3-cyanophenyl)oxetan-2-yl]methyl]-2-norboman-2-yl-acetamide], the EC50 was 1.28 µM. Regarding `O=C(NCC1(c2cccc(OC(F)F)n2)CCO1)C1CC12CCCCC2` (stereo not drawn) [Example 123, N-[[2-[6-(difluoromethoxy)-2-pyridyl]oxetan-2-yl]methyl]spiro[2.5]octane-2-carboxamide], the EC50 was found to be 0.17 µM. With `CC(F)(F)[C@H]1C[C@@H]1C(=O)NC[C@@]1(c2cccc(C#N)c2)CCO1` (mixture of isomers) [Example 113, (1SR,2SR)—N-[[(2S)-2-(3-cyanophenyl)oxetan-2-yl]methyl]-2-(1,1-difluoroethyl)cyclopropanecarboxamide], the EC50 came to 2.18 µM. As to `COC(C)(CNC(=O)NC1CC2CCC1C2)c1cccc(Cl)c1` (racemic) [Example 35, 1-[2-(3-chlorophenyl)-2-methoxy-propyl]-3-[rac-(1S,4R)-norbornan-2-yl]urea], the EC50 came to 1.35 µM. `COc1cc(C(C)(CNC(=O)[C@H]2C[C@@H]2c2ccccc2)OC)ccn1` (mixture of isomers) [Example 52, (1S,2S)-N-[(2RS)-2-methoxy-2-(2-methoxy-4-pyridyl)propyl]-2-phenyl-cyclopropanecarboxamide]: the EC50 was found to be 9.42 µM. As for `CCc1cc(C2(CNC(=O)[C@H]3C[C@@H]3c3ccccc3)CCO2)ccn1` (stereo partly drawn) [Example 121, (1S,2S)—N-[[2-(2-ethyl-4-pyridyl)oxetan-2-yl]methyl]-2-phenyl-cyclopropanecarboxamide], the EC50 was 2.51 µM.

With `COC(C)(CNC(=O)NCc1cccc(F)c1)c1cccc(Cl)c1` (stereo not drawn) [Example 10, 1-[2-(3-chlorophenyl)-2-methoxy-propyl]-3-[(3-fluorophenyl)methyl]urea], the EC50 is 0.76 µM.

As to `O=C(NC/C(=C/CO)c1cccc(Cl)c1)[C@H]1C[C@@H]1c1ccccc1` [Example 77, (1S,2S)—N-[(E)-2-(3-chlorophenyl)-4-hydroxy-but-2-enyl]-2-phenyl-cyclopropanecarboxamide], the EC50 worked out at 0.34 µM. Take `COC(C)(CNC(=O)NCc1cccs1)c1cccc(Cl)c1` (stereo not drawn) [Example 33, 1-[2-(3-chlorophenyl)-2-methoxy-propyl]-3-(2-thienylmethyl)urea]: the EC50 turned out to be 1.86 µM.

Consider `CC(C#N)(CNC(=O)[C@H]1C[C@@H]1c1ccccc1)c1cccc(C(F)(F)F)c1` (mixture of isomers) [Example 31, rac-(1S,2S)-N-[2-cyano-2-[3-(trifluoromethyl)phenyl]propyl]-2-phenyl-cyclopropanecarboxamide], for which the EC50 was 2.49 µM. `COC(C)(CNC(=O)C1CC1c1ccccc1F)c1cccc(Cl)c1` (stereo not drawn) [Example 43, N-[2-(3-chlorophenyl)-2-methoxy-propyl]-2-(2-fluorophenyl)cyclopropanecarbox-amide]: the EC50 is 0.11 µM. In the case of `N#Cc1cccc([C@]2(CNC(=O)[C@H]3C[C@@H]3C(F)(F)F)CCO2)c1` [Example 95, (1S,2S)—N-[[(2S)-2-(3-cyanophenyl)oxetan-2-yl]methyl]-2-(trifluoromethyl)cyclopropanecarboxamide], the EC50 turned out to be 2.55 µM.

Turning to `O=C(NCC1(c2cccc(Cl)c2)CC1)NC1COC2(CCCC2)C1` (stereo not drawn) [Example 12, 1-[[1-(3-chlorophenyl)cyclopropyl]meth-yl]-3-(1-oxaspiro[4.4]nonan-3-yl)urea], the EC50 turned out to be 2.92 µM. Next, `CC(C)(C)CNC(=O)NCC1(c2cccc(Cl)c2)CCO1` (stereo not drawn) [Example 60, 1-[[2-(3-chlorophenyl)oxetan-2-yl]methyl]-3-(2,2-dimethylpropyl)urea]: 1.05 µM. Turning to `O=C(NCC1(c2cccc(Cl)c2)COC1)[C@H]1C[C@@H]1c1ccccc1` [Example 68, (1S,2S)—N-[[3-(3-chlorophenyl)oxetan-3-yl]methyl]-2-phenyl-cyclopropanecarboxamide], the EC50 was determined as 0.2 µM.

For the compound `COC(CNC(=O)NC1CC2CCC1C2)c1cccc(Cl)c1` (stereo not drawn) [Example 4, 1-[2-(3-chlorophenyl)-2-methoxy-ethyl]-3-norbornan-2-yl-urea], the EC50 was found to be 0.5 µM. For `COc1ccc(CCNC(=O)NCC(C)(OC)c2cccc(Cl)c2)cc1` (stereo not drawn) [Example 34, 1-[2-(3-chlorophenyl)-2-methoxy-propyl]-3-[2-(4-methoxyphenyl)ethyl]urea] the value was 3.94 µM.

Regarding `O=C(NCC1(c2cccc(Cl)c2)CCO1)NC1CC2CCC1C2` (racemic) [Example 54, 1-[[2-(3-chlorophenyl)oxetan-2-yl]methyl]-3-[rac-(1S,2S,4R)-norbornan-2-yl]urea], the EC50 came to 0.19 µM. Next, `COC(C)(CNC(=O)NCc1ccco1)c1cccc(Cl)c1` (stereo not drawn) [Example 9, 1-[2-(3-chlorophenyl)-2-methoxy-propyl]-3-(2-furylmethyl)urea]: 2.46 µM. With `O=C(CC1CCCCC1)NCC1(c2cccc(Cl)c2)CCO1` (stereo not drawn) [Example 57, N-[[2-(3-chlorophenyl)oxetan-2-yl]methyl]-2-cyclohexyl-acetamide], the EC50 was found to be 0.43 µM. For `N#Cc1cccc([C@]2(CNC(=O)[C@H]3C[C@@H]3c3ccc(Br)cc3)CCO2)c1` [Example 128, (1S,2S)-2-(4-bromophenyl)-N-[[(2S)-2-(3-cyanophenyl)oxetan-2-yl]methyl]cyclopropanecarboxamide] the value was 0.47 µM. With `N#CCO[C@H](CNC(=O)[C@H]1C[C@@H]1c1ccccc1)c1cccc(Cl)c1` [Example 70, (1S,2S)—N-[(2S)-2-(3-chlorophenyl)-2-(cyanomethoxy)ethyl]-2-phenyl-cyclopropanecarboxamide], the EC50 was 0.65 µM. For `COC(C)(CNC(=O)N[C@H]1CC2CCC1C2)c1cccc(Cl)c1` (mixture of isomers) [Example 25, 1-[2-(3-chlorophenyl)-2-methoxy-propyl]-3-[rac-(1S,2S,4R)-norbornan-2-yl]urea] the value was 0.17 µM; for `O=C(NC[C@]1(c2cccc(Cl)c2)CCO1)[C@H]1C[C@@H]1c1ccccc1` [Example 39, (1S,2S)-N-[[(2R)-2-(3-chlorophenyl)oxetan-2-yl]methyl]-2-phenyl-cyclopropanecarboxamide], 0.73 µM. On to `CCOc1cccc(NC(=O)NCC(C)(OC)c2cccc(Cl)c2)c1` (stereo not drawn) [Example 14, 1-[2-(3-chlorophenyl)-2-methoxy-propyl]-3-(3-ethoxyphenyl)urea], for which the EC50 turned out to be 0.6 µM. Regarding `Cc1ccc(C2CC2C(=O)NC[C@@]2(c3cccc(C#N)c3)CCO2)o1` (stereo partly drawn) [Example 133, N-[[(2S)-2-(3-cyanophenyl)oxetan-2-yl]methyl]-2-(5-methyl-2-furyl)cyclopropanecarboxamide], the EC50 was 0.5 µM. For `N#Cc1cccc([C@]2(CNC(=O)[C@H]3C[C@@H]3c3ccccc3)CCO2)c1` [Example 49, (1S,2S)-N-[[(2S)-2-(3-cyanophenyl)oxetan-2-yl]methyl]-2-phenyl-cyclopropanecarboxamide], the EC50 turned out to be 0.04 µM. As for `COC(C)(CNC(=O)Nc1cccc(OC(F)(F)F)c1)c1cccc(Cl)c1` (stereo not drawn) [Example 29, 1-[2-(3-chlorophenyl)-2-methoxy-propyl]-3-[3-(trifluoromethoxy)phenyl]urea], the half-maximal effective concentration (EC50) is 5.69 µM.
